Laboratory results from PMC9256669, “Monomethyl auristatin antibody and peptide drug conjugates for trimodal cancer chemo-radio-immunotherapy” (Nature Communications, 2022).
Values joined by “and” are separate entries in the source; they are usually repeats but may differ in a detail not shown here. Equal entries are not always repeated. Non-standard residues stand in square brackets, D forms with d. Residues, ends and D or L forms follow the SMILES beside them. *: point of attachment. Dolaproine = CO[C@@H]([C@@H]1CCCN1)[C@@H](C)C(=O)O; Dil = CC[C@H](C)[C@H](NC)[C@@H](CC(=O)O)OC; X1 = C[C@@H](N*)[C@@H](O)c1ccccc1; NMeV = CN[C@H](C(=O)O)C(C)C

Key:
B16 cells [1] = experiment: NanoString PanCancer IO 360 gene expression and gene set analysis of MMAE-treated cells; assay type: cell-based, murine
Procedure: RNA was isolated from cells or tumor tissues and comprehensive immune profiling was analyzed using the NanoString PanCancer IO 360 Panel and NanoString nCounter PanCancer Mouse Immune Profiling gene expression platforms. Gene set analysis with calculated global significance scores and directed significance scores were calculated for treated cells. The Advanced Analysis module of the nSolver software was used to analyze genes associated with listed immune cells in tumors and given a Z-score (n = 3 mice per group). Expression levels of GZMB were analyzed using real-time quantitative PCR. Reverse transcription was performed with the iScript cDNA synthesis kit (Biorad), using aliquots of total RNA extracted with RNeasy Plus Mini Kit (Qiagen). Gene-specific primers were GZMB-F […] and GZMB-R […]. Real-time PCR reactions were performed using the CFX Connect Real-Time PCR System (Biorad) and the amplifications were done using the iTaq Universal SYBR Green Supermix (Biorad). qPCR data were analyzed using the Bio-Rad CFX Maestro software. […]
a Undirected Directed Enrichment
Pathway # of Genes Enrichment Score Score
Gene Name Supplementary Figure 1: Gene
Mdm2 expression analysis of MMAE treated
Casp3 cells. B16 cells exposed to 5 nM MMAE for
Bcl2l1 72 hrs. RNA collected and analyzed using Cd68 murine NanoString PanCancer IO 360
Thbs1 Panel. a) Gene set analysis with calculated
Gls global significance scores and directed
Fstl3 significance scores. b) Heatmap depicting
Mfge8 2 differential gene expression of 36 genes
Brd3 1 control and MMAE treated cells. Source
Pias4 0 data are provided in Source Data file under
Fzd9 tab labeled Figure 1b.
Supplementary Data 1: Complete NanoString expression data of Figure 1b. Untreated control (n=2) and 5 nM MMAE treated (n=3) B16 cells were harvested at 72 hrs. RNA was collected and analyzed using NanoString PanCancer IO 360 Panel. Individual normalized RNA expression values shown for each gene. […]

B16 cells [2] = experiment: Cell cycle analysis; assay type: cell-based, murine; settings: for G2/M fraction: Figure 3c, single replicates
Procedure: Cells were MMAE treated for 24 h, fixed in 70% ethanol, stained with FxCyclePI/RNase solution (Life Technologies), and then analyzed by FACS using FlowJo software.

[3] = 5 nM MMAE 72 hrs, gene set analysis
[4] = 5 nM MMAE 72 hrs, samples MMAE_5, MMAE_1, MMAE_3

CC[C@H](C)[C@@H]([C@@H](CC(=O)N1CCC[C@H]1[C@H](OC)[C@@H](C)C(=O)N[C@H](C)[C@@H](O)c1ccccc1)OC)N(C)C(=O)[C@@H](NC(=O)[C@@H](NC)C(C)C)C(C)C [MMAE, monomethyl auristatin E] (H-[NMeV]V[Dil][Dolaproine]-X1) was tested, and the “Directed Enrichment Score: Angiogenesis” value (B16 cells [1]; [3]) was 1.8412, the “Directed Enrichment Score: Antigen Presentation” value (B16 cells [1]; [3]) was 0.8121 and the “Directed Enrichment Score: Apoptosis” value (B16 cells [1]; [3]) was 0.9856. For the same compound, the “Directed Enrichment Score: Autophagy” value (B16 cells [1]; [3]) was -3.279, the “Directed Enrichment Score: Cell Proliferation” value (B16 cells [1]; [3]) was -0.7774 and the “Directed Enrichment Score: Costimulatory Signaling” value (B16 cells [1]; [3]) was -1.9366. The “Directed Enrichment Score: Cytokine and Chemokine Signaling” value (B16 cells [1]; [3]) was -1.4236, the “Directed Enrichment Score: Cytotoxicity” value (B16 cells [1]; [3]) was 0.8779 and the “Directed Enrichment Score: DNA Damage Repair” value (B16 cells [1]; [3]) was -1.9501. For the same compound, the “Directed Enrichment Score: Epigenetic Regulation” value (B16 cells [1]; [3]) was -1.7988, the “Directed Enrichment Score: Hedgehog Signaling” value (B16 cells [1]; [3]) was -2.2414 and the “Directed Enrichment Score: Hypoxia” value (B16 cells [1]; [3]) was -2.4508. The “Directed Enrichment Score: Immune Cell Adhesion and Migration” value (B16 cells [1]; [3]) was -1.0133, the “Directed Enrichment Score: Interferon Signaling” value (B16 cells [1]; [3]) was 0.9986 and the “Directed Enrichment Score: JAK-STAT Signaling” value (B16 cells [1]; [3]) was -1.657. The “Directed Enrichment Score: Lymphoid Compartment” value (B16 cells [1]; [3]) was 0.8253, the “Directed Enrichment Score: MAPK” value (B16 cells [1]; [3]) was -1.437 and the “Directed Enrichment Score: Matrix Remodeling and Metastasis” value (B16 cells [1]; [3]) was 1.1775. For the same compound, the “Directed Enrichment Score: Metabolic Stress” value (B16 cells [1]; [3]) was -2.3196, the “Directed Enrichment Score: Myeloid Compartment” value (B16 cells [1]; [3]) was 0.1922 and the “Directed Enrichment Score: NF-kappaB Signaling” value (B16 cells [1]; [3]) was -0.7242. For the same compound, the “Directed Enrichment Score: Notch Signaling” value (B16 cells [1]; [3]) was -1.0152, the “Directed Enrichment Score: PI3K-Akt” value (B16 cells [1]; [3]) was -1.358 and the “Directed Enrichment Score: TGF-beta Signaling” value (B16 cells [1]; [3]) was -2.2971. The “Directed Enrichment Score: Wnt Signaling” value (B16 cells [1]; [3]) was -2.3166, the “Undirected Enrichment Score: Angiogenesis” value (B16 cells [1]; [3]) was 2.7066 and the “Undirected Enrichment Score: Antigen Presentation” value (B16 cells [1]; [3]) was 1.2276. For the same compound, the “Undirected Enrichment Score: Apoptosis” value (B16 cells [1]; [3]) was 2.3071, the “Undirected Enrichment Score: Autophagy” value (B16 cells [1]; [3]) was 3.5536 and the “Undirected Enrichment Score: Cell Proliferation” value (B16 cells [1]; [3]) was 2.1596. For the same compound, the “Undirected Enrichment Score: Costimulatory Signaling” value (B16 cells [1]; [3]) was 2.2732, the “Undirected Enrichment Score: Cytokine and Chemokine Signaling” value (B16 cells [1]; [3]) was 1.9551 and the “Undirected Enrichment Score: Cytotoxicity” value (B16 cells [1]; [3]) was 1.637. For the same compound, the “Undirected Enrichment Score: DNA Damage Repair” value (B16 cells [1]; [3]) was 2.4043, the “Undirected Enrichment Score: Epigenetic Regulation” value (B16 cells [1]; [3]) was 2.4405 and the “Undirected Enrichment Score: Hedgehog Signaling” value (B16 cells [1]; [3]) was 3.1229. The “Undirected Enrichment Score: Hypoxia” value (B16 cells [1]; [3]) was 2.9454, the “Undirected Enrichment Score: Immune Cell Adhesion and Migration” value (B16 cells [1]; [3]) was 1.8838 and the “Undirected Enrichment Score: Interferon Signaling” value (B16 cells [1]; [3]) was 1.5239. For the same compound, the “Undirected Enrichment Score: JAK-STAT Signaling” value (B16 cells [1]; [3]) was 2.5395, the “Undirected Enrichment Score: Lymphoid Compartment” value (B16 cells [1]; [3]) was 1.1946 and the “Undirected Enrichment Score: MAPK” value (B16 cells [1]; [3]) was 2.756. For the same compound, the “Undirected Enrichment Score: Matrix Remodeling and Metastasis” value (B16 cells [1]; [3]) was 2.3587, the “Undirected Enrichment Score: Metabolic Stress” value (B16 cells [1]; [3]) was 2.8728 and the “Undirected Enrichment Score: Myeloid Compartment” value (B16 cells [1]; [3]) was 1.2711. For the same compound, the “Undirected Enrichment Score: NF-kappaB Signaling” value (B16 cells [1]; [3]) was 1.6264, the “Undirected Enrichment Score: Notch Signaling” value (B16 cells [1]; [3]) was 2.5438 and the “Undirected Enrichment Score: PI3K-Akt” value (B16 cells [1]; [3]) was 2.7297. For the same compound, the “Undirected Enrichment Score: TGF-beta Signaling” value (B16 cells [1]; [3]) was 3.339, the “Undirected Enrichment Score: Wnt Signaling” value (B16 cells [1]; [3]) was 3.1574 and the “NanoString scores: Bcl2l1” value (B16 cells [1]; [4]) was 0.4361 and 0.5098 and 0.454. The “NanoString scores: Cd68” value (B16 cells [1]; [4]) was 1.981 and 1.6572 and 1.978, the “NanoString scores: Mdm2” value (B16 cells [1]; [4]) was 0.6422 and 0.6786 and 0.4527 and the “pathways downregulated by MMAE (gene set analysis)” value (B16 cells [1]; downregulated pathways / all pathways) was 17/25. For the same compound, the G2/M fraction (B16 cells [2]; MMAE 1 nM) was 0.13 and 0.12, the G2/M fraction (B16 cells [2]; MMAE 2 nM) was 0.12 and 0.14 and the G2/M fraction (B16 cells [2]; MMAE 5 nM) was 0.23 and 0.25. For the same compound, the G2/M fraction (B16 cells [2]; MMAE 10 nM) was 0.73 and 0.76 and the cell cycle effect (B16 cells [2]; MMAE-treated cells) was “arresting cells in the radiosensitive mitotic phase of the cell cycle”.
